From PubChem BioAssay (NCI)
“And” between values parts separate entries of the source, which are not always exact repeats. Equal entries are not always repeated.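 Protocol summary: plate cells (96-well), add compound at 5 concentrations, incubate 48 h, interpolate endpoints linearly. Abbreviation: GI50, concentration required for 50% inhibition of growth. TGI is the concentration that stops growth completely.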

How the values were obtained:
Test in all cases: NCI-60 cell line screen, 48 h
RXF 393 renal = tested on: RXF 393 renal
UACC-257 melanoma = tested on: UACC-257 melanoma
COLO 205 colon = tested on: COLO 205 colon
LOX IMVI melanoma = tested on: LOX IMVI melanoma
MOLT-4 leukemia = tested on: MOLT-4 leukemia
HT29 colon = tested on: HT29 colon
NCI-H460 lung = tested on: NCI-H460 lung
T-47D breast = tested on: T-47D breast
HOP-62 NSCLC = tested on: HOP-62 NSCLC
IGROV1 ovarian = tested on: IGROV1 ovarian

| Structure (SMILES) | GI50 (RXF 393 renal) | TGI (RXF 393 renal) | GI50 (UACC-257 melanoma) | TGI (UACC-257 melanoma) [µM] | GI50 (COLO 205 colon) | TGI (COLO 205 colon) [µM] | GI50 (LOX IMVI melanoma) | TGI (LOX IMVI melanoma) | GI50 (MOLT-4 leukemia) | TGI (MOLT-4 leukemia) | GI50 (HT29 colon) | TGI (HT29 colon) | GI50 (NCI-H460 lung) | TGI (NCI-H460 lung) [µM] | GI50 (T-47D breast) [µM] | TGI (T-47D breast) [µM] | GI50 (HOP-62 NSCLC) | TGI (HOP-62 NSCLC) [µM] | GI50 (IGROV1 ovarian) | TGI (IGROV1 ovarian) [µM] |
| --- | --- | --- | --- | --- | --- | --- | --- | --- | --- | --- | --- | --- | --- | --- | --- | --- | --- | --- | --- | --- |
| COc1ccccc1S(=O)(=O)Nc1ccc2c(c1)CN(C)C(=O)N2 | 4.72 µM and 5.16 µM | 28.3 µM and > 60.2 µM | 4.46 µM and 3.86 µM | > 100 | 2.61 µM and 2.8 µM | > 100 | 3.3 µM and 3.45 µM | 27.8 µM and 21.3 µM | 11 µM and 12.7 µM | > 100 µM | 2.55 µM and 2.26 µM | > 100 µM | 10.6 µM and 13.4 µM | > 100 | 3.27 | > 100 | 4.93 µM and 4.22 µM | > 100 | 6.42 µM and 5.7 µM | > 100 |
| COC1=Nc2ccccc2S(=O)(=O)C=C1 | – | 8.69 µM | 0.671 µM | 20.5 | 0.695 µM | 4.01 | – | 10.9 µM | 0.489 µM and 0.44 µM | 2.47 µM | – | 26.7 µM | – | 37.3 | – | 14.2 | – | > 100 | – | 28.1 |
| O=C(O)C1(Cc2cccc(Nc3nccs3)n2)CCC(Oc2cccc(Cl)c2F)CC1 (centres undefined) | 0.0488 µM | 12.8 µM | 31.6 µM | > 81.1 | 0.876 µM | 19.3 | 7.62 µM | 22.5 µM | 15.7 µM | 63.8 µM | 7.56 µM | 24.2 µM | 0.344 µM | 19.6 | 15.8 | > 100 | 6.77 µM | 56.2 | 15.9 µM | 53.1 |
| COc1ccc(C(=O)COc2cccc(/C=C3\CSc4ccc(C)cc4C3=O)c2)cc1 | 19.9 µM | 49 µM | 49.2 µM | > 100 | 31.8 µM | > 100 | 2.53 µM | 8.06 µM | 3.13 µM | 10.2 µM | 6.02 µM | > 100 µM | > 100 µM | > 100 | 11.7 | > 100 | 24.9 µM | > 100 | 12.2 µM | 43.8 |
| O=[N+]([O-])c1ccc2ncccc2c1Cl | 2.74 µM | 8.81 µM | 7.62 µM | 29.3 | – | – | 2.4 µM | 14.5 µM | 3.07 µM | 12.2 µM | 3.45 µM | 9.29 µM | 3.47 µM | 16.6 | 11.2 | 42.1 | 5.64 µM | > 100 | 3.89 µM | 13.8 |
| CCCCCC/C=C\CCCCCCCCCC1=CC(=O)C=C(OC)C1=O | – | 13.1 µM | – | 9.11 | – | 3.24 | – | 13.9 µM | – | > 100 µM | – | 11.8 µM | – | 11.1 | – | 4.86 | – | 14.8 | – | 3.86 |
| Cn1c(=S)c2[nH]c(SCCN3CCCC3)nc2n(C)c1=O | – | > 100 µM | – | > 100 | – | > 100 | – | > 100 µM | – | > 100 µM | – | > 100 µM | – | > 100 | – | > 100 | – | > 100 | – | > 100 |
| CCCCn1sc(=O)n(Cc2ccc(CNC(=O)OCc3ccc4c(Br)cc(Br)c(O)c4n3)cc2)c1=O | 0.47 µM | > 100 µM | > 100 µM | > 100 | 24.8 µM | > 100 | 0.403 µM | > 100 µM | 0.895 µM | > 100 µM | 28.6 µM | > 100 µM | 0.395 µM | > 100 | > 100 | > 100 | 0.749 µM | > 100 | 0.531 µM | > 100 |
| CCC1CCc2nc3sc(C(=O)Nc4ccccc4C)c(N)c3cc2C1 (centres undefined) | 0.316 µM | 40.7 µM | 0.486 µM | > 100 | 0.451 µM | > 100 | 0.775 µM | > 100 µM | 0.661 µM | > 100 µM | – | – | 0.627 µM | > 100 | 0.816 | > 100 | 0.674 µM | > 100 | > 100 µM | > 100 |
| C#CCOc1cccc(Nc2ncnc3ccc(NC(=O)CCl)cc23)c1 | 4.47 µM | 19 µM | 7.49 µM | 26 | 0.463 µM | 16.8 | 0.0933 µM | 3.89 µM | 0.0864 µM | > 89.5 µM | 0.0981 µM | 6.87 µM | 0.0723 µM | 3.08 | 3.44 | 30.9 | 4.2 µM | > 53.2 | 0.164 µM | 2.77 |
| O=[N+]([O-])c1ccc(Sc2c3ccccc3nc3ccccc23)nc1 | – | 7.08 µM | – | 19.2 | – | 6.39 | – | 4.97 µM | – | 8.99 µM | – | 8.62 µM | – | 42.6 | – | 6.52 | – | 47.3 | – | 30.6 |
| CCN1C(=O)N(c2ccccc2)C2NN=c3s/c(=C4\C(=O)N(C(C)C)c5ccccc54)c(=O)n3C21 (centres undefined) | 0.612 µM | 2.63 µM | > 51.8 µM | > 100 | 0.54 µM | 24.5 | 2.17 µM | 11.2 µM | 1.58 µM | > 100 µM | 1.08 µM | > 100 µM | 1.16 µM | > 38.9 | 0.716 | > 100 | 0.689 µM | 18.9 | 1.55 µM | > 100 |
| COc1ccc2c(c1)[n+](=O)c(C(=O)/C=C/c1cc(OC)c(OC)c(OC)c1)c(C)n2[O-] | 6.47 µM | 21.5 µM | 34.1 µM | > 100 | 65 µM | > 100 | 16 µM | 47.6 µM | > 100 µM | > 100 µM | > 100 µM | > 100 µM | 23 µM | > 100 | 22.8 | > 100 | 18.7 µM | 37.2 | 20.7 µM | 42 |
| CCCSC1=NC2C(N(CC)C(=O)N2CC)N1/N=C/C=C/c1ccccc1[N+](=O)[O-] (centres undefined) | 1.8 µM | 8.32 µM | 11 µM | > 100 | 3.13 µM | 56.5 | 3.08 µM | 20.7 µM | 3.36 µM | > 100 µM | 3.16 µM | > 100 µM | 3.45 µM | > 100 | 4.21 | > 100 | 3.79 µM | > 100 | 4.06 µM | > 100 |
| O=C1CCc2c(sc3[nH]c(=S)n(Cc4ccccc4)c(=O)c23)C1 | 5.81 µM | > 100 µM | 2.36 µM | 7.06 | 2.36 µM | 4.99 | 3.38 µM | 12.5 µM | 4.39 µM | > 100 µM | 3.84 µM | 27 µM | 3.64 µM | > 100 | 2.41 | 43.9 | 3.84 µM | > 100 | 5.11 µM | > 100 |
| COc1cnc2c(c1)C(=O)c1c-2n(CCCN2CCCC2)c(=O)c2cc(F)ccc12 | 0.36 µM | 1.53 µM | 0.396 µM | 2.2 | 0.109 µM | 2.64 | 0.185 µM | 0.558 µM | 0.0591 µM | 0.414 µM | 0.209 µM | 1.1 µM | 0.0603 µM | 0.3 | 0.218 | 10.2 | 0.212 µM | 0.687 | 0.363 µM | 3.34 |
| CCc1nc(Cl)nc(Cl)c1Cl | – | 4.37 µM | – | 1.87 | – | 14.6 | – | 0.394 µM | – | 1.68 µM | – | 5.04 µM | – | 28.5 | – | 22 | – | 21.2 | – | 13.7 |
| C=C(C)[C@@H]1CC[C@]2(COC3CCCCO3)CC[C@]3(C)[C@H](CC[C@@H]4[C@@]5(C)C=C(C=O)C(=O)C(C)(C)[C@@H]5CC[C@]43C)[C@@H]12 (some centres undefined) | 1.24 µM | 2.73 µM | 2.06 µM | 4.22 | 1.62 µM | 3.48 | 1.36 µM | 2.73 µM | 1.03 µM | 29.9 µM | 1.7 µM | 3.49 µM | 2.02 µM | 4.22 | 1.33 | 3.01 | 1.75 µM | 3.19 | 2.13 µM | 4.56 |
| O=C1/C(=C/c2ccccc2)CN(C(=O)OCc2ccccc2)C/C1=C\c1ccccc1 | – | 19.8 µM | 9.19 µM | 28.3 | – | 34.1 | 1.21 µM | 2.52 µM and 8.88 µM | 2.18 µM | 7.49 µM and 19 µM | 1.87 µM | 6.31 µM and 25.5 µM | 5.47 µM | > 46.4 | – | > 100 | – | 39.9 | – | 23.8 |
| C#Cc1cccc(Nc2nc3ccc([N+](=O)[O-])cc3nc2Nc2cccc(C#C)c2)c1 | 0.227 µM | 0.618 µM | 0.207 µM | 0.602 | 0.172 µM | 0.345 | 0.172 µM | 0.328 µM | 0.247 µM | 1.02 µM | 0.229 µM | 0.562 µM | 0.209 µM | 0.899 | 0.259 | 0.889 | 0.188 µM | 0.476 | 0.354 µM | 1.3 |
